For data set [1] the following is noted: right after preparation and overnight storage.
Data set [2] concerns bacteria-induced sepsis mouse models. As to conditions: cited from earlier work. From the text:
The gene expressions of TLR2 and TLR4 in these patients were also correlated with that of the inflammatory cytokine IL1B (Figure S1C-F). These analyses together with reported literatures indeed confirmed the TLR2 and TLR4 up-regulation as a strong pathogenic factor in sepsis patients. Moreover, studies have shown that TLR4 knockout mice ...

Data set [3] has as its system LPS / TLR4. Also on record: method as in 3 sources, ref 25 = [25]; PMID 34183393; doi:10.1073/pnas.2101721118; 25 Schromm AB Paulowski L Kaconis Y Kopp F Koistinen M Donoghue A Cathelicidin and PMB neutralize endotoxins by multifactorial mechanisms including LPS interaction and targeting of host cell membranes ||| ref 18, 19 = [18]; PMID 17237433; doi:10.4049/jimmunol.178.3.1829; 18 Di Nardo A Braff MH Taylor KR Na C Granstein RD McInturff JE Cathelicidin antimicrobial peptides block dendritic cell TLR4 activation and allergic contact sensitization J Immunol 2007 178 1829 34 1 || [19]; PMID 32582207; doi:10.3389/fimmu.2020.01137; 19 Scheenstra MR van Harten RM Veldhuizen EJA Haagsman HP Coorens M Cathelicidins modulate TLR-activation and inflammation Front Immunol 2020 11 1137 32582207 10.3389/fimmu.2020.01137 PMC7296178 ||| ref 44 = [44]; PMID 31364070; doi:10.1007/978-3-030-16373-0_4; 44 Li Z Velkov T Polymyxins: mode of action Adv Exp Med Biol 2019 1145 37 54 31364070 10.1007/978-3-030-16373-0_4. As to conditions: cited from earlier work. From the text: Bioactive peptides are functional biopolymers that can be de novo designed or derived from nature with immunoregulatory and antimicrobial activities. For example, naturally existed antimicrobial peptides (AMPs) are key players in the host-defense mechanism against the invasion of various pathogens including bacteria, fungi, viruses and parasites, [17], through the disruption of microorganism membranes. This working mechanism makes AMPs more advantageous over traditional antibiotics due to less chance for the development of drug resistance. In addition to elimination of microbes, some AMPs ... || Polymyxin B (PMB), a cationic cyclic peptide, is one of the last-line antibiotics to treat drug-resistant bacterial infection in the clinic. […] To assess the potency of our newly designed R18, we made the head-to-head comparison between R18 and polymyxin B on their TLR4 and TLR2 inhibitory activities.

Data set [4] concerns TLR4/MD-2 complex. Set-up: method as in PMID 35238667. The following applies: cited from earlier work.
In data set [5] the test system is TLR4 signaling (LPS-induced NF-κB/AP-1 and IRF activation) in THP-1 reporter cell-derived macrophages. Briefly: NF-κB/AP-1 and IRF reporter assay, LPS (TLR4). The class given is cell-based, human. As for the experimental part: (§1) Cell culture. THP-1 cells were cultured in the RPMI 1640 complete medium supplemented with 10% FBS, 2 mM L-glutamine, and 1 mM sodium pyruvate, in a cell incubator containing 5% CO2 at 37°C. Zeocin (200 μg/mL or 100 μg/mL) was added to the complete medium as the selection pressure for THP-1-XBlue or THP-1-ISG reporter cells. Cells were seeded into a 96-well plate (1×10^5 cells/well) or a 24-well plate (5×10^5 cells/well), and differentiated into macrophages with PMA (50 ng/mL) for 24 h. […] The culture medium supernatants and cell lysates were collected for further analysis.
(§2) NF-κB/AP-1 and IRF reporter assay. THP-1-XBlue and THP-1-ISG reporter cells were used to assess the activation of NF-κB/AP-1 and IRF, respectively. After treatments, the culture medium (20 μL per well) was collected and mixed with the Quanti-Blue solution (180 μL) in a clean 96-well plate, which was incubated for 1-2 h at 37°C until the solution color turned into dark purple. The solution absorption at 655 nm was acquired on a microplate reader (TECAN, Mannedorf, Zurich, Switzerland).
In general terms: In a reporter assay the amount or activity of a reporter protein is the signal.

Data set [6] has as its system Gram-positive bacterial infection. As to conditions: cited from earlier work. The text has this: (§3) The fast-increasing cases of sepsis or pneumonia caused by multidrug-resistant Gram-negative bacteria in the clinics have become a global health emergency, [30]. Currently, the peptide-based polymyxin B is the last line of antibiotics to fight multidrug-resistant Gram-negative bacteria. […] Th ...

For data set [7] the following is noted: cited from earlier work.
From the text: as §3

Data set [8] concerns TLR2 signaling (Pam3CSK4-induced NF-κB/AP-1 activation) in THP-1 reporter cell-derived macrophages. Kind of data set: NF-κB/AP-1 reporter assay, Pam3CSK4 (TLR2). The following applies: 2.5, 5 and 10 μM, Pam3CSK4 10 ng/mL, co-treatment, N = 3. It counts as cell-based, human. As for the experimental part:
as §1, §2

The source of these data is paper PMC12439338, “Designer amphiphilic helical peptide-decorated nanomicelles enable simultaneous inflammation control and triple-destruction of bacteria for treating bacterial pneumonia and sepsis” (Theranostics, 2025).

Where a SMILES comes first, the peptide text is derived from it.

In the case of `CC(C)C[C@H](NC(=O)[C@H](CC(C)C)NC(=O)[C@H](CCCNC(=N)N)NC(=O)[C@H](Cc1c[nH]c2ccccc12)NC(=O)[C@H](CC(C)C)NC(=O)[C@H](CCCNC(=N)N)NC(=O)[C@H](CCCNC(=N)N)NC(=O)[C@H](Cc1c[nH]c2ccccc12)NC(=O)[C@H](CC(C)C)NC(=O)[C@H](CCCNC(=N)N)NC(=O)[C@H](CC(C)C)NC(=O)[C@H](Cc1c[nH]c2ccccc12)NC(=O)[C@H](CCCNC(=N)N)NC(=O)[C@H](CCCNC(=N)N)NC(=O)[C@H](CC(C)C)NC(=O)[C@H](Cc1c[nH]c2ccccc12)NC(=O)[C@@H](N)CCCNC(=N)N)C(=O)N[C@@H](CCCNC(=N)N)C(N)=O` [R18] (H-RWLRRWLRLWRRLWRLLR-NH2), the “stability and dispersibility in PBS” value in data set [1] was “tended to form milky colloidal suspensions and precipitate overnight”.

In the case of `CCOC(=O)C1=CCCC[C@H]1S(=O)(=O)Nc1ccc(F)cc1Cl` [TAK-242], the “disease severity in sepsis mouse models” value in data set [2] is recorded as “successfully reduced the disease severity in bacteria-induced sepsis mouse models”.

As for “LL-37: human host-defense peptide cathelicidin”, in data set [3], the “modulation of TLR4-triggered responses via LPS binding” value is recorded as “capable of modulating TLR4-triggered inflammatory responses”.

In the case of papiliocin, the “binding to TLR4/MD-2” value in data set [4] is reported as “directly bind to the TLR4/MD-2 complex in order to block LPS-TLR4 interactions”.

Consider polymyxin B, for which, in data set [3], the “TLR4-mediated inflammation inhibition by antagonizing LPS” value was “capable of inhibiting TLR4-mediated inflammatory responses by antagonizing LPS” and the “TLR4 antagonism by LPS neutralization” value is reported as “TLR4 antagonist by neutralizing the bacterial product LPS”. Besides, the “inhibition of LPS-induced NF-κB/AP-1 and IRF activation” value in data set [5] is given as “able to effectively inhibit LPS-induced activation”. The “effectiveness against Gram-positive bacterial infection and inflammation” value in data set [6] was “not effective against Gram-positive bacterial infection and the associated inflammation”. The clinical toxicity entry in data set [7] was “has neurotoxicity and often causes some serious kidney problems”. In data set [8], the “inhibition of Pam3CSK4-induced NF-κB/AP-1 activation” value is listed as “had no effect on TLR2 inhibition”.
